Source: PubChem BioAssay AID330 (DTP/NCI, 2004)
Values joined by “and” are separate entries in the source; they are usually repeats but may differ in a detail not shown here. Equal values may be shown once. Toxic doses and inconclusive results are not listed.

Test system: P388 leukemia ip, CD2F1 mice, survival T/C
Assay: NCI In Vivo Anticancer Drug Screen. Data for tumor model P388 Leukemia (intraperitoneal) in CD2F1 (CDF1) mice
Conditions: endpoint: median survival time, higher = longer survival
Procedure, shortened: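 Mice carrying the transplanted tumor received test compound or vehicle. Survival was recorded in each group, and the value is the treated-group measurement divided by that of the vehicle-treated control group.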

[1] = dose: 100.0 mg/kg/injection, schedule: Q01DX009 (ip), vehicle: saline with Tween-80
[2] = dose: 200.0 mg/kg/injection, schedule: Q01DX009 (ip), vehicle: saline with Tween-80
[3] = dose: 50.0 mg/kg/injection, schedule: Q01DX005 (ip), vehicle: saline with Tween-80
[4] = dose: 100.0 mg/kg/injection, schedule: Q01DX005 (ip), vehicle: saline with Tween-80
[5] = dose: 200.0 mg/kg/injection, schedule: Q01DX005 (ip), vehicle: saline with Tween-80
[6] = dose: 12.5 mg/kg/injection, schedule: Q01DX009 (ip), vehicle: saline with Tween-80
[7] = dose: 25.0 mg/kg/injection, schedule: Q01DX009 (ip), vehicle: saline with Tween-80
[8] = dose: 50.0 mg/kg/injection, schedule: Q01DX009 (ip), vehicle: saline with Tween-80
[9] = dose: 240.0 mg/kg/injection, schedule: Q01DX005 (ip), vehicle: saline with Tween-80
[10] = dose: 100.0 mg/kg/injection, schedule: Q04DX002 (ip), vehicle: saline with Tween-80
[11] = dose: 200.0 mg/kg/injection, schedule: Q04DX002 (ip), vehicle: saline with Tween-80
[12] = dose: 400.0 mg/kg/injection, schedule: Q04DX002 (ip), vehicle: saline with Tween-80

N#Cc1ccccc1CC(O)(c1ccccc1)c1ccccc1
T/C [1]: 99 % of control
T/C [2]: 100 % of control
T/C (dose: 400.0 mg/kg/injection, schedule: Q01DX009 (ip), vehicle: saline with Tween-80): 91 % of control

CC(=O)Nc1cc2cc(N=CN(C)C)ccc2oc1=O
T/C (dose: 60.0 mg/kg/injection, schedule: Q01DX005 (ip), vehicle: Klucel + Tween-80): 99 % of control
T/C (dose: 120.0 mg/kg/injection, schedule: Q01DX005 (ip), vehicle: Klucel + Tween-80): 104 % of control

COc1cccc(-c2ccncc2)c1
T/C [3]: 102 % of control
T/C [4]: 93 % of control
T/C [5]: 93 % of control

COc1ccc(OC)c(NC=O)c1
T/C [6]: 98 % of control and 86 % of control
T/C [7]: 98 % of control and 93 % of control and 97 % of control
T/C [8]: 104 % of control and 97 % of control
T/C [1]: 99 % of control and 100 % of control and 97 % of control

COc1ccc(C2c3cc4c(cc3OC(N3CCCC3)C2C)OCO4)cc1 (centres undefined)
T/C (dose: 7.5 mg/kg/injection, schedule: Q01DX005 (ip), vehicle: saline with Tween-80): 90 % of control
T/C (dose: 15.0 mg/kg/injection, schedule: Q01DX005 (ip), vehicle: saline with Tween-80): 90 % of control
T/C (dose: 30.0 mg/kg/injection, schedule: Q01DX005 (ip), vehicle: saline with Tween-80): 94 % of control
T/C [9]: 90 % of control

Cc1nc2ccccc2c(=O)n1NC(=S)Nc1ccc(Cl)cc1
T/C [10]: 90 % of control
T/C [11]: 88 % of control
T/C [12]: 90 % of control

Nc1nc(-c2ccccc2)nc(-c2ccccc2)n1
T/C (dose: 2.5 mg/kg/injection, schedule: Q01DX009 (ip), vehicle: saline): 104 % of control
T/C (dose: 3.12 mg/kg/injection, schedule: Q01DX009 (ip), vehicle: saline): 95 % of control
T/C (dose: 3.12 mg/kg/injection, schedule: Q01DX009 (ip), vehicle: suspension in saline): 100 % of control and 97 % of control
T/C (dose: 5.0 mg/kg/injection, schedule: Q01DX009 (ip), vehicle: saline): 104 % of control
T/C (dose: 6.25 mg/kg/injection, schedule: Q01DX009 (ip), vehicle: saline): 92 % of control
T/C (dose: 10.0 mg/kg/injection, schedule: Q01DX009 (ip), vehicle: saline): 100 % of control
T/C (dose: 12.5 mg/kg/injection, schedule: Q01DX009 (ip), vehicle: saline): 89 % of control
T/C (dose: 12.5 mg/kg/injection, schedule: Q01DX009 (ip), vehicle: suspension in saline): 93 % of control and 98 % of control
T/C (dose: 20.0 mg/kg/injection, schedule: Q01DX009 (ip), vehicle: saline): 100 % of control
T/C (dose: 25.0 mg/kg/injection, schedule: Q01DX009 (ip), vehicle: suspension in saline): 90 % of control and 98 % of control

COc1cc2c(c3c1c(=O)c1cccnc1n3C)C=CC(C)(C)O2
T/C (dose: 50.0 mg/kg/injection, schedule: Q01DX005 (ip), vehicle: Klucel (hydroxypropylcellulose) (HPC)): 101 % of control
T/C (dose: 100.0 mg/kg/injection, schedule: Q01DX005 (ip), vehicle: Klucel (hydroxypropylcellulose) (HPC)): 101 % of control
T/C (dose: 200.0 mg/kg/injection, schedule: Q01DX005 (ip), vehicle: Klucel (hydroxypropylcellulose) (HPC)): 91 % of control

CCC12C=CCN3CC[C@@]4(c5cc([C@@]6(C(=O)OC)CC7CN(CCc8c6[nH]c6ccccc86)C[C@](O)(CC)C7)c(OC)cc5N(C)[C@H]4[C@]4(OCOC4=O)[C@@H]1O)C32 (some centres undefined)
T/C (dose: 0.5 mg/kg/injection, schedule: Q01DX005 (ip), vehicle: saline): 102 % of control
T/C (dose: 1.0 mg/kg/injection, schedule: Q01DX005 (ip), vehicle: saline): 91 % of control
T/C (dose: 2.0 mg/kg/injection, schedule: Q01DX005 (ip), vehicle: saline): 92 % of control

COC1/C=C/OC2(C)Oc3c(C)c(O)c4c(O)c(c(/C=N/N5CC(C)N(C(=O)c6ccccc6)C(C)C5)c(O)c4c3C2=O)NC(=O)C(C)=C/C=C/C(C)C(O)C(C)C(O)C(C)C(OC(C)=O)C1C (centres undefined)
T/C [6]: 124 % of control
T/C [7]: 124 % of control
T/C [8]: 118 % of control
T/C [1]: 116 % of control
T/C [2]: 109 % of control

Cn1cnc([N+](=O)[O-])c1Sc1ncccn1
T/C [7]: 106 % of control
T/C (dose: 25.0 mg/kg/injection, schedule: Q01DX009 (ip), vehicle: saline): 98 % of control
T/C [8]: 98 % of control
T/C (dose: 50.0 mg/kg/injection, schedule: Q01DX009 (ip), vehicle: saline): 104 % of control and 108 % of control
T/C [1]: 100 % of control
T/C (dose: 100.0 mg/kg/injection, schedule: Q01DX009 (ip), vehicle: saline): 108 % of control and 112 % of control
T/C [2]: 106 % of control
T/C (dose: 200.0 mg/kg/injection, schedule: Q01DX009 (ip), vehicle: saline): 114 % of control and 122 % of control

NC1=NC(=O)C(N=O)C(=O)N1 (centres undefined)
T/C [10]: 99 % of control
T/C [11]: 107 % of control
T/C [12]: 106 % of control

COc1cc(NCCN)c2ncsc2c1
T/C (dose: 50.0 mg/kg/injection, schedule: Q01DX005 (ip), vehicle: saline): 100 % of control
T/C (dose: 100.0 mg/kg/injection, schedule: Q01DX005 (ip), vehicle: saline): 102 % of control

C/C(O)=C(/N=Nc1ccc(-c2nc3ccc(C)c(S(=O)(=O)O)c3s2)cc1)C(=O)Nc1ccccc1
T/C (dose: 6.25 mg/kg/injection, schedule: Q01DX009 (ip), vehicle: saline with Tween-80): 104 % of control
T/C [6]: 95 % of control
T/C [7]: 96 % of control

c1ccc(CN2C3Oc4ccccc4C2Oc2ccccc23)cc1
T/C [6]: 100 % of control
T/C [7]: 100 % of control
T/C [8]: 91 % of control

CC(C)(C)c1ccc(C(c2ccc(C(C)(C)C)cc2)C(Cl)(Cl)Cl)cc1
T/C (dose: 100.0 mg/kg/injection, schedule: Q04DX003 (ip), vehicle: saline with Tween-80): 104 % of control
T/C (dose: 200.0 mg/kg/injection, schedule: Q04DX003 (ip), vehicle: saline with Tween-80): 100 % of control
T/C (dose: 400.0 mg/kg/injection, schedule: Q04DX003 (ip), vehicle: saline with Tween-80): 100 % of control

C[n+]1ccccc1/C=C/c1ccc2c(c1)OCO2
T/C (dose: 6.25 mg/kg/injection, schedule: Q01DX009 (ip), vehicle: Klucel (hydroxypropylcellulose) (HPC)): 102 % of control
T/C (dose: 12.5 mg/kg/injection, schedule: Q01DX009 (ip), vehicle: Klucel (hydroxypropylcellulose) (HPC)): 98 % of control
T/C (dose: 25.0 mg/kg/injection, schedule: Q01DX009 (ip), vehicle: Klucel (hydroxypropylcellulose) (HPC)): 110 % of control
T/C (dose: 50.0 mg/kg/injection, schedule: Q01DX009 (ip), vehicle: Klucel (hydroxypropylcellulose) (HPC)): 114 % of control

CC1Oc2cc3c(-c4c(O)cc(O)c5c(O)c6c(cc45)OC(C)C(C)C6=O)c(O)cc(O)c3c(O)c2C(=O)C1C (centres undefined)
T/C (dose: 1.25 mg/kg/injection, schedule: Q01DX005 (ip), vehicle: saline): 101 % of control
T/C (dose: 1.25 mg/kg/injection, schedule: Q01DX005 (ip), vehicle: suspension in saline): 100 % of control
T/C (dose: 2.5 mg/kg/injection, schedule: Q01DX005 (ip), vehicle: saline): 100 % of control
T/C (dose: 2.5 mg/kg/injection, schedule: Q01DX005 (ip), vehicle: suspension in saline): 95 % of control
T/C (dose: 5.0 mg/kg/injection, schedule: Q01DX005 (ip), vehicle: suspension in saline): 121 % of control
T/C (dose: 10.0 mg/kg/injection, schedule: Q01DX005 (ip), vehicle: suspension in saline): 116 % of control
T/C (dose: 20.0 mg/kg/injection, schedule: Q01DX005 (ip), vehicle: suspension in saline): 110 % of control

CSc1nc2c(=O)[nH]cnc2s1
T/C (dose: 60.0 mg/kg/injection, schedule: Q01DX005 (ip), vehicle: saline with Tween-80): 105 % of control
T/C (dose: 120.0 mg/kg/injection, schedule: Q01DX005 (ip), vehicle: saline with Tween-80): 102 % of control
T/C [9]: 96 % of control

Nc1nc(N)c2cc(CNc3ccc(C(=O)NC(CC(=O)O)CC(=O)O)cc3)ccc2n1
T/C [6]: 203 % of control
T/C [7]: 226 % of control
T/C (dose: 100.0 mg/kg/injection, schedule: Q01DX009 (ip), vehicle: saline sonified): 168 % of control
T/C [1]: 99 % of control
T/C (dose: 100.0 mg/kg/injection, schedule: Q04DX003 (ip), vehicle: saline sonified): 181 % of control
T/C (dose: 200.0 mg/kg/injection, schedule: Q01DX009 (ip), vehicle: saline sonified): 204 % of control
T/C [2]: 87 % of control
T/C (dose: 200.0 mg/kg/injection, schedule: Q04DX003 (ip), vehicle: saline sonified): 150 % of control
T/C (dose: 400.0 mg/kg/injection, schedule: Q01DX009 (ip), vehicle: saline sonified): 159 % of control
T/C (dose: 400.0 mg/kg/injection, schedule: Q04DX003 (ip), vehicle: saline sonified): 113 % of control

COc1ccc(C2c3cc4c(cc3OC(C)(OC)C2C)OCO4)c(OC)c1 (centres undefined)
T/C [3]: 88 % of control
T/C [4]: 88 % of control
T/C [5]: 91 % of control
